pIC50: −log10 of the molar value.

As a reminder, the chromatographic logP is a lipophilicity value derived from retention on a column. As a reminder, the pIC50 is the IC50 on a negative log10 scale, so that one unit is a factor of ten. Higher therefore signals a low IC50.

The nature of data set [1]: Octanol/water distribution coefficient (logP/D), isocratic HPLC method. The data set is classed as physicochemical. To be noted: for chromatographic logP: octanol/water, pH 7.4, pH7.4. The source says:
Assay for Determining the Octanol/Water Distribution Coefficient (logP/D): The distribution coefficient octanol/water P or D is a key parameter for estimating membrane penetration and permeability. It is defined as the ratio of the equilibrium concentrations of a substance in the two-phase system octanol/water. [formula] P=partition D=distribution c(octanol)=concentration of the substance in the octanol phase c(water)=concentration of the substance in the aqueous phase It is usually stated in form of the decadic logarithm (logP or logD). logP describes the distribution behaviour of a substance exclusively present in its neutral form. logD describes the distribution behaviour of a substance at a certain pH; depending on the ionisation constant pKa of the substance, some of the substance may be present in ionic form, and some in neutral form. The logP/D of the active compounds was determined using an isocratic HPLC method (HPLC=high performance liquid chromatography) (literature: OECD Guideline for Testing of Chemicals No. 117). The method is based on the correlation of the HPLC retention time of the test substance to that of reference substances with known distribution coefficients. […] The nine reference substances were dissolved individually in methanol. 100 μl each of the stock solutions were added to an HPLC vial and mixed with 300 μl of water. [table] A formamide solution was used to determine the hold-up time. To this end, 7 mg of formamide were dissolved in 10 ml of methanol. 100 μl of this stock solution were mixed with 500 μl of methanol and 200 μl of water. […] [table] [table] Injection Protocol: formamide, references, test substance 1, test substance 2, . . . , formamide, references. Evaluation of the retention times was carried out in a diode array detector (DAD) at 200-400 nm Via the molecular mass, the identity of the test substance was checked using the downstream mass spectrometer. The HPLC run was evaluated using the Waters software Masslynx 4.1. The logP/D values were calculated using the software “POW Determination” (proprietary development).

A further data set relates to KM12. The data set can be described thus: Tumour cell proliferation, CellTiter-Glo, 96 h. It is filed as cell-based. The note with it: 96-hour incubation. The method, then:
(§1) In accordance with the invention, the substances were tested in cell-based assays for the ability of the substances of inhibiting tumour cell proliferation after a 96-hour incubation with the substance. Cell viability was tested using the CellTiter-Glo® luminescent cell viability assay (Promega). The cells were sown at a density of 2000-5000 cells/well (depending on the cell line) in 100 μl growth medium on 96-well microtitre plates. For each cell line examined, cells were sown on a separate plate to determine the luminescence at t=0 hours and t=96 hours. After overnight incubation at 37° C., the luminescence values for the t=0 samples were determined. The dose plates for the t=96 hours points in time were treated with substances diluted with growth medium. The cells were then incubated at 37° C. for 96 hours, and the luminescence values for the t=96 hours samples were then determined. For data analysis, the t=0 values were subtracted from the t=96 hours values for treated and untreated samples. The differences in luminescence in percent between substance-treated samples and control values were used to determine the growth inhibition in percent.
(§2) The substances were tested in the following cell lines which represent the stated indications in an exemplary manner: […]
Background: Cellular ATP, detected with luciferase, serves as a proxy for viable cell number.

A further data set relates to MCF7. As to the kind of experiment: Tumour cell proliferation, CellTiter-Glo, 96 h. The data set is classed as cell-based. To be noted: 96-hour incubation. The method, then: as §1, §2
The test system of another data set is PC3. The data set can be described thus: Tumour cell proliferation, CellTiter-Glo, 96 h. It is filed as cell-based. The note with it: 96-hour incubation. On the procedure: as §1, §2
The next data set deals with H460. As to the kind of experiment: Tumour cell proliferation, CellTiter-Glo, 96 h. The data set is classed as cell-based. The note with it: 96-hour incubation. The method, then:
as §1, §2

A short description of data set [2]: Membrane affinity logMA (MA-Transil). The data set is classed as physicochemical. The note with it: buffer pH 7.4. The method, then:
Assays for Determining Membrane Affinity logMA and Protein Binding to Human Serum Albumin (HSA):
Determination of membrane affinity and protein binding to human serum albumin (HSA) was carried out via Transil technology (literature: A. Loidl-Stahlhofen, A. Eckert, T. Hartmann, M. Schöttner J Pharm Sci 90, 599-606 (2001)). Transil® (commercially available from Sovicell in Leipzig, Germany) are glass beads (diameter 10-12 μm) coated with a double-layer membrane of phosphatidylcholine (MA-Transil) or covalently attached human serum albumin (HSA-Transil).
To determine the logMA and the protein binding constant to HSA, the commercially available TRANSIL Intestinal Absorption & HSA Binding Combined Assay Kit was used. This is a 96-well microtitre plate (96 well-MTP) which is filled with Transil and can be used to determine MA-Transil and HSA-Transil binding of in each case eight active compounds. For each active compound, the Transil plate provides a row of 12 wells. Two wells serve as reference and are only filled with buffer pH 7.4. Five further wells contain MA-Transil in various increasing concentrations, the five remaining wells contain HSA-Transil in various increasing concentrations.
To determine binding of an active compound to Transil, the supernatant of the wells with Transil was quantified against the reference solution without Transil via HPLC-MS coupling (HPLC-MS=high performance liquid chromatography/mass spectrometry).
This is how the individual steps of the assay were carried out:
From the internal substance store, the active compounds were delivered in a 96-well MTP. This plate is referred to as mother plate. Each well contained 30 μl of a 10 mmol solution of active compound in DMSO (dimethyl sulphoxide). Two wells at the start (well A1) and at the end of the plate (well H12) were filled with 30 μl of a 10 mmol solution of warfarin in DMSO. Warfarin, whose membrane affinity and binding to HSA is known, serves to check whether the measurement is correct. The mother plate was used to prepare a daughter plate with a 1 to 4000 dilution with a mixture of buffer pH 7.4 and DMSO in a ratio of 1+1. The active compound concentration of each well was 2.5 μmol/liter, the volume of each well was 400 μl.
Using a Hamilton pipetting robot Microlab STAR, the 96 active compounds from the daughter plate were divided onto 12 Transil plates in total. From each well of the daughter plate, 12 times 20 μl were removed. The concentration of each well of the Transil plate was 0.25 μmol/liter, which corresponds to a dilution of 1 to 10. The DMSO content was 5%.
The filled Transil plates were each resuspended for two minutes, then allowed to stand at room temperature for at least two minutes and then centrifuged at 600 rotations per minute for five minutes. The pipetting robot was then used to remove 20 μl of supernatant from each well of the Transil plate and to transfer these to a separate microtitre plate. Here, the supernatants of in each case four Transil plates were pooled in a microtitre plate, so that at the end there were three pooled microtitre plates with in each case 80 μl of solution and an active compound concentration of 62.5 nM per well.
Prior to quantification of the active compounds by HPLC-MS, an optimization has to be carried out for each active compound where by way of a single injection daughter ion and optimum electrical voltages are determined. To this end, the pipetting robot prepared a dilution of the mother plate of 1 to 10 000 000 in an acetonitrile/water mixture in a ratio of 8+2 in a separate microtitre plate. This microtitre plate was measured by HPLC-MS using the software Discovery Quant Optimize from AB Sciex. The three pooled microtitre plates were measured by HPLC-MS using the software Discovery Quant Analyze from AB Sciex. […]

`CO[C@]1(C(F)(F)F)CC[C@]2(CC1)NC(=O)C(c1cc(-c3ccc(Cl)cc3)ccc1C)=C2O` [Example 1-1, (5r,8r)-3-(4′-Chloro-4-methylbiphenyl-3-yl)-4-hydroxy-8-methoxy-8-(trifluoromethyl)-1-azaspiro[4.5]dec-3-en-2-one]: the chromatographic logP in data set [1] stood at 2.44. The pIC50 in the data set on KM12 (Homo sapiens, KM12) is 7.68; with MCF7 (Homo sapiens, MCF7) it was 7.59; with PC3 (Homo sapiens, PC-3), 7.54; in the data set with H460 (Homo sapiens, NCI-H460), 7.06.

In data set [1], `CO[C@]1(C(F)(F)F)CC[C@]2(CC1)NC(=O)C(c1cc(-c3ccc(Cl)c(F)c3)ccc1C)=C2O` [Example 1-2, (5r,8r)-3-(4′-Chloro-3′-fluoro-4-methylbiphenyl-3-yl)-4-hydroxy-8-methoxy-8-(trifluoromethyl)-1-azaspiro[4.5]dec-3-en-2-one] yielded a chromatographic logP of 2.45. Moreover, the pIC50 in the data set with KM12 (Homo sapiens, KM12) is 7.85; in the data set on MCF7 (Homo sapiens, MCF7), more than 7.85; in the data set with PC3 (Homo sapiens, PC-3) it was 7.66; with H460 (Homo sapiens, NCI-H460), 6.98.

In data set [1], `COC[C@]1(OC)CC[C@@]2(CC1)NC(=O)C(c1cc(-c3ccc(Cl)cc3)ccc1C)=C2O` [Example 1-3, (5r,8r)-3-(4′-Chloro-4-methylbiphenyl-3-yl)-4-hydroxy-8-methoxy-8-(methoxymethyl)-1-azaspiro[4.5]dec-3-en-2-one] registered a chromatographic logP of 2.3. The logMA in data set [2] is recorded as less than 1.0. For the same compound, the pIC50 is 6.65 with KM12 (Homo sapiens, KM12); 7.35 with MCF7 (Homo sapiens, MCF7); 6.71 in the data set with PC3 (Homo sapiens, PC-3); 6.44 with H460 (Homo sapiens, NCI-H460).

In turn, `COC[C@]1(OC)CC[C@@]2(CC1)NC(=O)C(c1cc(-c3ccc(Cl)c(F)c3)ccc1C)=C2O` [Example 1-4, (5r,8r)-3-(4′-Chloro-3′-fluoro-4-methylbiphenyl-3-yl)-4-hydroxy-8-methoxy-8-(methoxymethyl)-1-azaspiro[4.5]dec-3-en-2-one] registered a chromatographic logP in data set [1] of 2.38. The pIC50 in the data set with KM12 (Homo sapiens, KM12) is 7.02; with MCF7 (Homo sapiens, MCF7), 7.32; with PC3 (Homo sapiens, PC-3), 6.92; with H460 (Homo sapiens, NCI-H460) it was 6.48.

For `CO[C@]1(C)CC[C@]2(CC1)NC(=O)C(c1cc(-c3ccc(Cl)cc3)ccc1C)=C2O` [Example V.1-a, (5r,8r)-3-(4′-Chloro-4-methylbiphenyl-3-yl)-4-hydroxy-8-methoxy-8-methyl-1-azaspiro[4.5]dec-3-en-2-one], in data set [1], the “logP/D pH7.4” value is 2.51. The compound also registered a logMA in data set [2] of 1.4. Besides, the negative-log IC50 (pIC50) in the data set with KM12 is 7.42; in the data set on MCF7, 7.64; with PC3, 7.46; in the data set on H460, 7.10.

As to `CO[C@]1(C)CC[C@]2(CC1)NC(=O)C(c1cc(-c3ccc(Cl)c(F)c3)ccc1C)=C2O` [Example V.2-a, (5r,8r)-3-(4′-Chloro-3′-fluoro-4-methylbiphenyl-3-yl)-4-hydroxy-8-methoxy-8-methyl-1-azaspiro[4.5]dec-3-en-2-one], the “logP/D pH7.4” value in data set [1] stood at 2.52. Also, the logMA in data set [2] amounted to 1.67. Besides, the pIC50 in the data set on KM12 was 7.14; in the data set on MCF7, 7.49; in the data set on PC3, 7.34; with H460 it was 7.09.

In the case of `Cc1ccc(-c2ccc(Cl)cc2)cc1C1=C(O)[C@]2(CC[C@](O)(C(F)(F)F)CC2)NC1=O` [V.1-c, (5r,8r)-3-(4′-Chloro-4-methylbiphenyl-3-yl)-4,8-dihydroxy-8-(trifluoromethyl)-1-azaspiro[4.5]dec-3-en-2-one], the chromatographic logP in data set [1] was found to be 1.6. Also, in data set [2], the logMA was 2.1. Also, the pIC50 in the data set on KM12 (Homo sapiens, KM12) is 6.08; in the data set on PC3 (Homo sapiens, PC-3), 6.56; with H460 (Homo sapiens, NCI-H460), 5.73.

As to `Cc1ccc(-c2ccc(Cl)c(F)c2)cc1C1=C(O)[C@]2(CC[C@](O)(C(F)(F)F)CC2)NC1=O` [V.2-c, (5r,8r)-3-(4′-Chloro-3′-fluoro-4-methylbiphenyl-3-yl)-4,8-dihydroxy-8-(trifluoromethyl)-1-azaspiro[4.5]dec-3-en-2-one], the chromatographic logP in data set [1] worked out at 1.3. In data set [2], the logMA is listed as 2.3. Besides, the pIC50 in the data set with KM12 (Homo sapiens, KM12) is 5.63; in the data set on PC3 (Homo sapiens, PC-3), 6.12; with H460 (Homo sapiens, NCI-H460) it was 5.67.

As to `COC[C@H]1CC[C@]2(CC1)NC(=O)C(c1cc(-c3ccc(Cl)cc3)ccc1C)=C2O` [V.3-b, (5s,8s)-3-(4′-Chloro-4-methylbiphenyl-3-yl)-4-hydroxy-8-(methoxymethyl)-1-azaspiro[4.5]dec-3-en-2-one], in data set [1], the chromatographic logP turned out to be 2.5. Moreover, in data set [2], the logMA stood at 2.08. Further, the pIC50 in the data set on KM12 (Homo sapiens, KM12) is 7.51; with MCF7 (Homo sapiens, MCF7) it was 7.64; with PC3 (Homo sapiens, PC-3) it was 7.44; with H460 (Homo sapiens, NCI-H460) it was 7.17.

`COC[C@H]1CC[C@]2(CC1)NC(=O)C(c1cc(-c3ccc(Cl)c(F)c3)ccc1C)=C2O` [V.4-b, (5s,8s)-3-(4′-Chloro-3′-fluoro-4-methylbiphenyl-3-yl)-4-hydroxy-8-(methoxymethyl)-1-azaspiro[4.5]dec-3-en-2-one]: in data set [1], the chromatographic logP was determined as 2.57. In data set [2], this compound gave a logMA of 2.13. Also, the pIC50 in the data set on KM12 (Homo sapiens, KM12) is 7.46; with MCF7 (Homo sapiens, MCF7), 7.70; with PC3 (Homo sapiens, PC-3) it was 7.52; with H460 (Homo sapiens, NCI-H460) it was 7.37.

Values taken from patent publication US9278925B2, “Substituted 3-(biphenyl-3-yl)-4-hydroxy-8-methoxy-1-azaspiro[4.5]dec-3-en-2-one” (BAYER INTELLECTUAL PROPERTY GMBH, priority 2011, dated 2016).
